Experimental data as given in patent US7994164B2, “Mineralocorticoid receptor antagonists and methods of use” (Eli Lilly and Company, priority 2007, dated 2011).

What was measured:
[1] = molecular target: T1, human MR (mineralocorticoid receptor) (Homo sapiens, UniProt P08235); experiment: Steroid hormone nuclear receptor binding assay (MR binding); conditions: HEK293 lysate overexpressing human MR, [3H]-aldosterone; individual values geometric mean of n=2
T1 construct: expressed in transfected cells; host or cells: HEK293 (lysate, '293-MR lysate')
T1 sequence (P08235 1-984): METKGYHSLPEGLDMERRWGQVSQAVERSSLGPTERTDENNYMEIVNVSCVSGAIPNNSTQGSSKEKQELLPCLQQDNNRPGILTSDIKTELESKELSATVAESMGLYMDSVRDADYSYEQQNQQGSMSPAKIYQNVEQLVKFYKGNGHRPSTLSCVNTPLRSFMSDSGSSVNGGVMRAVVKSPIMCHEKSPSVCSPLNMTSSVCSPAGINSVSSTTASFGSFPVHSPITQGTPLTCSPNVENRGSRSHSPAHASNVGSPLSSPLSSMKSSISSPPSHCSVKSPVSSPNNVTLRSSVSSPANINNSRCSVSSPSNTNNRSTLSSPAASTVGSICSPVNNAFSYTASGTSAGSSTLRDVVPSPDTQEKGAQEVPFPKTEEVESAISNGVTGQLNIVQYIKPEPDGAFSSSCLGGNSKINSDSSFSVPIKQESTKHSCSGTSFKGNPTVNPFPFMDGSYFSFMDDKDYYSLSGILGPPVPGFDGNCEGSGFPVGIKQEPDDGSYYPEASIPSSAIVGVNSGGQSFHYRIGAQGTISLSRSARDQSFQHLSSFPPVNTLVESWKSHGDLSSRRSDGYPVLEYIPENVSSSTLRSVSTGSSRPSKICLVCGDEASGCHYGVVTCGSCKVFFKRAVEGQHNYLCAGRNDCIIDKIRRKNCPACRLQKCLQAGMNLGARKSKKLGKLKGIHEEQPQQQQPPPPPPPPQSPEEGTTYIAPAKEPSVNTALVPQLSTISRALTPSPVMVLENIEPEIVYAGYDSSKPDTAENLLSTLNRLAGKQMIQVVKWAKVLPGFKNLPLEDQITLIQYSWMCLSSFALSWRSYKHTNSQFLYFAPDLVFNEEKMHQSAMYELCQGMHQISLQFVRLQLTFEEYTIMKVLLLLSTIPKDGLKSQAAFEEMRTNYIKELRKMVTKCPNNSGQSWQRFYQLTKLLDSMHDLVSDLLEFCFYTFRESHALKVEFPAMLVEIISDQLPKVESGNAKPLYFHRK
Procedure: Cell lysates from human embryonic kidney HEK293 cells overexpressing human MR (mineralocorticoid receptor), GR (glucocorticoid receptor), AR (androgen receptor), or PR (progesterone receptor) are used for receptor-ligand competition binding assays to determine Ki values.
Briefly, steroid receptor competition binding assays are run in a buffer containing 20 mM HEPES buffer (pH=7.6), 0.2 mM EDTA, 75 mM NaCl, 1.5 mM MgCl2, 20% glycerol, 20 mM sodium molybdate, 0.2 mM DTT (dithiothreitol), 20 μg/mL aprotinin and 20 μg/mL leupeptin (assay buffer). Typically, steroid receptor binding assays include radio-labeled ligands, such as 0.25 nM [^3H]-aldosterone for MR binding, 0.3 nM [^3H]-dexamethasone for GR binding, 0.36 nM [^3H]-methyltrienolone for AR binding, and 0.29 nM [^3H]-methyltrienolone for PR binding, and either 20 μg 293-MR lysate, 20 μg 293-GR lysate, 22 μg 293-AR lysate, or 40 μg 293-PR lysate per well. Assays are typically run in 96-well format. Competing test compounds are added at various concentrations ranging from about 0.01 nM to 10 μM. […] The binding reactions (140 μL) are incubated overnight at 4° C., then 70 μL of cold charcoal-dextran buffer (containing per 50 mL of assay buffer, 0.75 g of charcoal and 0.25 g of dextran) is added to each reaction. Plates are mixed for 8 minutes on an orbital shaker at 4° C. The plates are then centrifuged at 3,000 rpm at 4° C. for 10 minutes. An aliquot of 120 μL of the binding reaction mixture is then transferred to another 96-well plate and 175 μL of Wallac Optiphase Hisafe 3™ scintillation fluid is added to each well. Plates are sealed and shaken vigorously on an orbital shaker. After an incubation of 2 hours, plates are read in a Wallac Microbeta counter.
The Kd for [^3H]-aldosterone for MR binding, [^3H]-dexamethasone for GR binding, [^3H]-methyltrienolone for AR binding, or [^3H]-methyltrienolone for PR binding, is determined by saturation binding. The IC50 values for compounds are converted to Ki using the Cheng-Prusoff equation.

[2] = molecular target: T2, human MR (Homo sapiens, UniProt P08235); experiment: hMR competitive antagonist assay (luciferase reporter, Schild analysis); type: cell-based
T2 construct: expressed in transfected cells; host or cells: HEK293, transient transfection with a CMV-driven plasmid and a GRE-TK-luciferase reporter
T2 sequence (P08235 1-984): T1 sequence (P08235 1-984)
From the text: Human embryonic kidney HEK293 cells are transfected with steroid hormone receptor and reporter gene plasmids using a suitable transfection reagent such as Fugene™. Briefly, the reporter plasmid containing two copies of probasin ARE and TK (thymidine kinase) promoter upstream of the luciferase reporter cDNA, is transfected into HEK293 cells with a plasmid constitutively expressing human androgen receptor (AR) using viral CMV (cytomegalovirus) promoter. The reporter plasmid containing two copies of GRE and TK promoter upstream of the luciferase reporter cDNA is transfected with a plasmid constitutively expressing either human glucocorticoid receptor (GR), human mineralocorticoid receptor (MR), or human progesterone receptor (PR) using viral CMV promoter. Cells are transfected in T150 cm flasks in DMEM media with 5% charcoal-stripped Fetal Bovine Serum (FBS). After an overnight incubation, transfected cells are trypsinized, plated in 96 well dishes in DMEM media containing 5% charcoal-stripped FBS, incubated for 4 hours and then exposed to various concentrations of test compounds ranging from about 0.01 nM to 10 μM. […] After 24 hours incubation with test compounds, cells are lysed and luciferase activity is determined using standard techniques.
Human embryonic kidney HEK293 cells are transfected with human MR using the same transfection reagents, plasmids, promoters, reporter constructs, buffers, and procedures as described above for the Nuclear Hormone Receptor Panel Screen.

[3] = tested on: uni-nephrectomized Sprague Dawley rats; experiment: In vivo model of aldosterone mediated renal disease; conditions: 10 mg/kg/day x 14 days, oral gavage, aldosterone-infused rats; average of n=8
Procedure: Male uni-nephrectomized Sprague Dawley rats (240-280 g) are housed individually with ad lib house water and rodent 5001 diet for one week. After acclimation, baseline 24 h urine samples are collected and analyzed for total urine protein and creatinine. Animals are randomized via body weight and baseline urine protein into study groups. Baseline serum is taken by tail-clip and analyzed for blood urea nitrogen (BUN), creatinine, and electrolytes. After baseline samples are taken, all rats with the exception of the control group are maintained on a diet containing 6% salt, and drinking water containing 0.3% KCl throughout the study duration. […] Alza mini-pumps to deliver 2.5 μl/h×28 days of d-aldosterone in 0.01% DMSO at 0.75 μg/h, s.c. are implanted in non-control animals (e.g Test Compound group and Vehicle only group) under isoflourane anesthesia. […] Repeat urine samples are collected after 2 and 4 weeks of compound or vehicle alone administration and analyzed for total urine protein and creatinine. At study termination, pharmacokinetic samples are obtained at 8 timepoints (0.5, 1, 2, 3, 6, 8, 12 and 24 h). In addition, hearts and kidneys are removed and fixed in 10% buffered formalin for haematoxylin and eosin (H&E) and Masson's trichrome staining to detect structural damage in cardiac and renal tissues. Serum is taken by cardiac puncture at study termination for additional analysis of serum BUN, creatinine, and electrolytes.

N#C/N=c1\[nH]c2cc(/C=C3/c4ccc(F)cc4OCc4c(F)cccc43)ccc2n1[C@H]1C[C@@H]2COCCN2C1 [Example 23, (E)-N-(5-((E)-3,7-Difluoro-6H-dibenzo[b,e]oxepin-11-ylidenemethyl)-1-((7S, 8aR)-hexahydro-pyrrolo[2,1-c][1,4]oxazin-7-yl)-1,3-dihydro-benzoimidazol-2-ylidene)-cyanamide]
Ki [1]: ~0.23 nM
Kb [2]: ~2.5 nM
reduced urinary protein excretion compared to vehicle treated animals [3]: ~64 mg/day

CN1CCN(n2/c(=N/C#N)[nH]c3cc(/C=C4\c5ccccc5COc5cc(F)ccc54)ccc32)CC1 [Example 8, (E)-N-(5-((E)-3-Fluoro-6H-dibenzo[b,e]oxepin-11-ylidenemethyl)-1-(4-methyl-piperazin-1-yl)-1,3-dihydro-benzoimidazol-2-ylidene)-cyanamide]
Ki [1]: ~0.08 nM
Kb [2]: ~1.1 nM
reduced urinary protein excretion compared to vehicle treated animals [3]: ~83 mg/day

C[C@H](CN1CCOCC1)n1/c(=N/C#N)[nH]c2cc(/C=C3\c4ccc(F)cc4COc4cc(F)ccc43)ccc21 [Example 1, (E)-N—((R)-5-((E)-3,8-Difluoro-6H-dibenzo[b,e]oxepin-11-ylidenemethyl)-1-(1-methyl-2-morpholin-4-yl-ethyl)-1,3-dihydro-benzoimidazol-2-ylidene)-cyanamide]
Ki [1]: ~0.79 nM
Kb [2]: ~1.2 nM
reduced urinary protein excretion compared to vehicle treated animals [3]: about 49 mg/day
